This is an account of results in patent publication US8629132B2, “Kinase inhibitors” (Genosco, priority 2009, dated 2014).

The target of experiment [1] is T1, JAK2 (Homo sapiens, UniProt O60674). Kind of experiment: In vitro kinase inhibition profile (Ambit Biosciences). Conditions: reported as percent control, lower numbers indicate stronger activities. Also on record: JAK2(JH1domain-catalytic); purchased Ambit Biosciences. Format: binding. How it is done: Up to 518 different kinases have been identified in humans. To determine the scope of inhibitory effects of a representative compound of Formula (I) on known kinases, Compound 82 was tested against 104 commercially available kinases (Ambit Biosciences™). 104 kinases included ABL1(E255K)-phosphorylated, ABL1(T315I)-phosphorylated, ABL1-phosphorylated, ACVR1B, ADCK3, AKT1, AKT2, ALK, AURKA, AURKB, AXL, BMPR2, BRAF, BRAF(V600E), BTK, CDK11, CDK2, CDK3, CDK7, CDK9, CHEK1, CSF1R, CSNK1D, CSNK1G2, DCAMKL1, DYRK1B, EGFR, EGFR(L858R), EPHA2, ERBB2, ERBB4, ERK1, FAK, FGFR2, FGFR3, FLT1, FLT3, FLT4, GSK3B, IGF1R, IKK-α, IKK-β, INSR, JAK2(JH1domain-catalytic), JAK3 (JH1 domain-catalytic), JNK 1, JNK2, JNK3, KIT, KIT(D816V), KIT(V559D,T6701), LKB1, LRRK2, LRRK2(G2019S), MAP3K4, MAPKAPK2, MARKS, MEK1, MEK2, MET, MKNK1, MKNK2, MLK1, MTOR, p38-alpha, p38-beta, PAK1, PAK2, PAK-4, PCTK1, PDGFRA, PDGFRB, PDPK1, PIK3C2B, PIK3CA, PIK3CG, PIM1, PIM2, PIM3, PKAC-alpha, PLK1, PLK3, PLK4, PRKCE, PYK2, RAF1, RET, R10K2, ROCK2, RSK2, SNARK, SRC, SRPK3, SYK, TAK1, TGFBR1, TIE2, TRKA, TSSK1B, TYK2(JH1domain-catalytic), ULK2, VEGFR2, YANK3 and ZAP70.
Inhibition activity of Compound 82 was reported as percent control where lower numbers indicate stronger activities.
Target sequence in this assay (O60674 849-1124 limits assumed): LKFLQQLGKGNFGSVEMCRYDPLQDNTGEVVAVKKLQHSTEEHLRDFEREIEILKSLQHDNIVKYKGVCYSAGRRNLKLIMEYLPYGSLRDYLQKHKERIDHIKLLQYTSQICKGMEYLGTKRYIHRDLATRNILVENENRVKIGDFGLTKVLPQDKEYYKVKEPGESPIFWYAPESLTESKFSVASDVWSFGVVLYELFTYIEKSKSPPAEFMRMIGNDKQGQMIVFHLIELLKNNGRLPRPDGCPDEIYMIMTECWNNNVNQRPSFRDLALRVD

Another experiment has as its target T2, LRRK2 (Homo sapiens, UniProt Q5S007).
T2 construct: truncated human FAK, RET, FLT3, JAK2, and LRRK2; purchased Carna Biosciences
Kind of experiment: Kinase inhibition assay: LRRK2. Format: biochemical. Conditions: at 1 μM concentration. How it is done:
(§1) Compounds of the present invention were tested for their capacity to inhibit a kinase panel which includes, but are not limited to, spleen tyrosine kinase (SYK), zeta-chain-associated protein kinase 70 (ZAP70), PTK2B protein tyrosine kinase 2 (PYK2), focal adhesion kinase (FAK), provirus integration of maloney kinase 1 (PIM1), rearranged during transfection kinase (RET), Fms-like tyrosine kinase 3 (FLT3), Janus kinase 2 (JAK2), and leucine-rich repeat kinase 2 (LRRK2).
(§2) Inhibition of SYK, ZAP70, PYK2, FAK, PIM1, RET, FLT3, JAK2 and LRRK2 Kinase Activity
(§3) Compounds of the invention were initially diluted to 10 mM in 100% DMSO (CALBIOCHEM™) for storage and made into kinase buffer solution to create a compound concentration ranging from 1 uM and 10 uM. Serial dilutions of compounds of the invention were dispensed into a 96-well plate (GREINER BIOSCIENCES™) at 6 μL each. Purified full-length human SYK, ZAP70, PIM1, PYK2 and truncated human FAK, RET, FLT3, JAK2, and LRRK2 (CARNA BIOSCIENCES™) were diluted in kinase buffer and added to the compound solutions and pre-incubated for 30 minutes at room temperature (1 hour for PYK2). […] The reaction mixture was incubated for 1 hour (2 hours for PYK2). Following the incubation, the stop solution made with EDTA, water, and Lance detection buffer ([…]™) was added (12μL each) to stop phosphorylation. […] The IC50 value of test compound was calculated at Gradpad Prism 5 unless specified otherwise.

A further experiment addresses T3, RET (Homo sapiens, UniProt P07949).
T3 construct: truncated human FAK, RET, FLT3, JAK2, and LRRK2; purchased Carna Biosciences
T3 sequence (P07949 658-1114 limits assumed): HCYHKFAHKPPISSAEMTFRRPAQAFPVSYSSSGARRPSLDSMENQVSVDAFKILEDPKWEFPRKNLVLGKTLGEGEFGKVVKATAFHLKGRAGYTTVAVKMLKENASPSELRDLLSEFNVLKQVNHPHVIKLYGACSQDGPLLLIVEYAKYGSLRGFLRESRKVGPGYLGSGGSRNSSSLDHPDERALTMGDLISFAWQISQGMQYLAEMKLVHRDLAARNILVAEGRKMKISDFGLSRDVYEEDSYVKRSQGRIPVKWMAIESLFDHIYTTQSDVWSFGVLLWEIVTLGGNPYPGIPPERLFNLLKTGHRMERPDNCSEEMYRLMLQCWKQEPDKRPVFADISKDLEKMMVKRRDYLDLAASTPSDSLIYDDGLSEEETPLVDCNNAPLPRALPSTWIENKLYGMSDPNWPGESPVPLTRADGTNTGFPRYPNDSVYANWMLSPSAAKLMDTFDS
Nature of the experiment: Kinase inhibition assay: RET. Format: biochemical.

The next experiment deals with T4, FLT3 (Homo sapiens, UniProt P36888).
T4 construct: truncated human FAK, RET, FLT3, JAK2, and LRRK2; purchased Carna Biosciences
T4 sequence (P36888 564-993 limits assumed): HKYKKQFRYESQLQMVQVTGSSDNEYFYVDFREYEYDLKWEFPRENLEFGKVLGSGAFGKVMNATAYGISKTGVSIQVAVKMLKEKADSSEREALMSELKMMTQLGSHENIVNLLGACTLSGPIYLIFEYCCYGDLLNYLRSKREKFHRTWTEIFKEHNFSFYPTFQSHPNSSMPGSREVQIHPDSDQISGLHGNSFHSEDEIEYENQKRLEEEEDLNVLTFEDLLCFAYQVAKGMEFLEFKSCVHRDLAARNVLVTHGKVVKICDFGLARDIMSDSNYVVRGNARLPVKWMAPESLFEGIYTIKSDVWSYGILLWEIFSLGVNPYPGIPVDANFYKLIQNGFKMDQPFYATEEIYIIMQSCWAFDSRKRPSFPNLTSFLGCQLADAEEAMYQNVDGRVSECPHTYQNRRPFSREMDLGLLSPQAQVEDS
Kind of experiment: Kinase inhibition assay: FLT3. Format: biochemical.

A further experiment concerns the target T5, FAK (Homo sapiens, UniProt Q05397).
T5 construct: truncated human FAK, RET, FLT3, JAK2, and LRRK2; purchased Carna Biosciences
Nature of the experiment: Kinase inhibition assay: FAK. Format: biochemical. Conditions: at 1 μM concentration. The protocol: as §1, §2, §3

The target in experiment [2] is T1, JAK2. Nature of the experiment: Kinase inhibition assay: JAK2. Format: biochemical. On the set-up: truncated human FAK, RET, FLT3, JAK2, and LRRK2; purchased Carna Biosciences.
Target sequence in this assay (O60674 826-1132 limits assumed): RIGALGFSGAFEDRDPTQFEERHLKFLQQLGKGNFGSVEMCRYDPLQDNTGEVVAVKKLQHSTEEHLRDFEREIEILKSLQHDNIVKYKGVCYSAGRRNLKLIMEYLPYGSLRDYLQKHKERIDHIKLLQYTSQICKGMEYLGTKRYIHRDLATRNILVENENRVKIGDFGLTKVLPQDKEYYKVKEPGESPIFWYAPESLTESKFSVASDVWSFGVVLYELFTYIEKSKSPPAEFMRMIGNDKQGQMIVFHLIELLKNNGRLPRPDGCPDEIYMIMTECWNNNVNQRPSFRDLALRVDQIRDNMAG

T2 sequence (Q5S007 970-2527 limits assumed): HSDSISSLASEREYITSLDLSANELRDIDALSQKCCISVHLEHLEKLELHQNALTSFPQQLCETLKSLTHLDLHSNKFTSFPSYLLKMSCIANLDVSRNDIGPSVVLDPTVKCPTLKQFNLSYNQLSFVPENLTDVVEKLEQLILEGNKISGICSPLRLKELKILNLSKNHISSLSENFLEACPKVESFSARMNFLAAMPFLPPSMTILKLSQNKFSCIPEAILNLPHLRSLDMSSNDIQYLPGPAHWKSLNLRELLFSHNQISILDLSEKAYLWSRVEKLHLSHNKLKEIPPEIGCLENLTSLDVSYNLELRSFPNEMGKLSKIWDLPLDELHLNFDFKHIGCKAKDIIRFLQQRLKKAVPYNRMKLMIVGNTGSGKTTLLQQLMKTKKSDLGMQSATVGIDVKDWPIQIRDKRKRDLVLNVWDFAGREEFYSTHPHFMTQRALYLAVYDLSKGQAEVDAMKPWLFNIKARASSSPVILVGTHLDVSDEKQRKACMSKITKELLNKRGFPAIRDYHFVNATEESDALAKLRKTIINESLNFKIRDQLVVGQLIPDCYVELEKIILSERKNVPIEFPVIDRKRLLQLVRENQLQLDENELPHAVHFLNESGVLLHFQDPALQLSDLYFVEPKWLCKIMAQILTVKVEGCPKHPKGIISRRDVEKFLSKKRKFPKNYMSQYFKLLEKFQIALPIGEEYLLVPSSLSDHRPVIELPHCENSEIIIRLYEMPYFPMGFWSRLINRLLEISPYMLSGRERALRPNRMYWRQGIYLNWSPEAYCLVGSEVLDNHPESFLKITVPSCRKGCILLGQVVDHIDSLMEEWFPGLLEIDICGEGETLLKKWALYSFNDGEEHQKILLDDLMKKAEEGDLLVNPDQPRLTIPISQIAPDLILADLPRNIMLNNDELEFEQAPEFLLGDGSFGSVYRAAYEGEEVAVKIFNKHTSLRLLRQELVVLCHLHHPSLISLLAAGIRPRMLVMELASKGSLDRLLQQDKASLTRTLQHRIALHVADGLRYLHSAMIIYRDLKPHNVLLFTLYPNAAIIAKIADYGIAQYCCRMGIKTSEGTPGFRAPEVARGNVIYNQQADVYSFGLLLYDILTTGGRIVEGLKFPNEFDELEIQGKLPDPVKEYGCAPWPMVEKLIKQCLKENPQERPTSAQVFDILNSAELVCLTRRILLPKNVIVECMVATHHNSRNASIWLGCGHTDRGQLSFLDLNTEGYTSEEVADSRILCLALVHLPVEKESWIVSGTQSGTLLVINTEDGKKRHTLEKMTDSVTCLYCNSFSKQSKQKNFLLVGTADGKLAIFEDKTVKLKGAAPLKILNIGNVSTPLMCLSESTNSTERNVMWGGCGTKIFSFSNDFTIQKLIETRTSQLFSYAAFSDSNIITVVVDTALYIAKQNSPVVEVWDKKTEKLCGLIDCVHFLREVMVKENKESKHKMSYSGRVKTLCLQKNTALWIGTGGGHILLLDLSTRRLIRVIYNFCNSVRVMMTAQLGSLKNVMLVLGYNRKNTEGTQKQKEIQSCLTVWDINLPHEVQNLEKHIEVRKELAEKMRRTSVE
T5 sequence (Q05397 376-1052 limits assumed): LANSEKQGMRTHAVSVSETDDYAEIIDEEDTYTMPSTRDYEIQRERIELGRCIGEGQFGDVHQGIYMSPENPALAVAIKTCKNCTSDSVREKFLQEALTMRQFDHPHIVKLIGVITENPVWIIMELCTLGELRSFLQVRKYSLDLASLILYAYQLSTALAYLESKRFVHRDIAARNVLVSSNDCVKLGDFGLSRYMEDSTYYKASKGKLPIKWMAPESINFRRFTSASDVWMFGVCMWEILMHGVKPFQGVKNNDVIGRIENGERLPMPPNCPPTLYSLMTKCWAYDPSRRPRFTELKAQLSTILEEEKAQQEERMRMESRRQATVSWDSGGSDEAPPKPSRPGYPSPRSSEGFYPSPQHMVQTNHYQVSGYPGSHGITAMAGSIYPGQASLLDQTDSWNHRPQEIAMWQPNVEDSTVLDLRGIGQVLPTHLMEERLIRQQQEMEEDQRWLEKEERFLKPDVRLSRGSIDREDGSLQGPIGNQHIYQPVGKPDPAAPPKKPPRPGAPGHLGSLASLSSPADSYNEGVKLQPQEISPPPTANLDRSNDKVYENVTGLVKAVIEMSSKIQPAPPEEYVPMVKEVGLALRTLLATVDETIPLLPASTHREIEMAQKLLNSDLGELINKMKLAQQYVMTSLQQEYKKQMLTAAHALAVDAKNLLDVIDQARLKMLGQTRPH

For `Cc1cc(C)cc(Nc2ncc(F)c(-n3cc(C)c(CN4CC[C@@H](O)C4)c3)n2)c1` [Compound 82, (R)-1-((1-(2-(3,5-dimethylphenyl-amino)-5-fluoropyrimidin-4-yl)-4-methyl-1H-pyrrol-3-yl)methyl) pyrrolidin-3-ol], the “% of control” value at JAK2 [1] amounted to 3%.
A word on the inhibition: it is the percentage by which the read-out fell short of the control. High values mean a response far below the control, low ones a response near the control. What is called IC50 is the concentration at which inhibition is half-maximal. Read a low IC50 as greater potency. Consider `COc1cc(Nc2ncc(C)c(-n3cc(C)c(CO)c3)n2)cc(OC)c1OC` [Compound 21, (4-methyl-1-(5-methyl-2-(3,4,5-trimethoxyphenylamino)pyrimidin-4-yl)-1H-pyrrol-3-yl)methanol], for which the inhibition at 1 µM against LRRK2 is 93%; against FAK it was 70.7%. For the same compound, the IC50 on RET was determined as 50 nM; at FLT3 it was 1.9 nM; against JAK2 [2], 7.7 nM.
